# Where a name gives a salt, the structure may show the parent alone.
# What was measured:
# bacteria = conditions: at clinically relevant doses; cited from earlier work
# [1] = solid-state stability of avibactam forms against moisture, temperature stress and storage; type: physicochemical
# [2] = cited from earlier work
structure (smiles),measurement,setting,value
"NC(=O)[C@@H]1CC[C@@H]2CN1C(=O)N2OS(=O)(=O)O [Avibactam, [(2S,5R)-2-carbamoyl-7-oxo-1,6-diazabicylco[3.2.1]octan-6-yl] hydrogen sulfate]",antibacterial activity in itself,bacteria,no antibacterial activity
"NC(=O)[C@@H]1CC[C@@H]2CN1C(=O)N2OS(=O)(=O)O [form A, avibactam sodium]",behaviour upon further temperature stress,[1],dehydrates to the anhydrous form B
"NC(=O)[C@@H]1CC[C@@H]2CN1C(=O)N2OS(=O)(=O)O [form C, avibactam sodium]",polymorphic stability (conversion to other crystalline forms),[2]; ambient conditions and conditions of manufacturing of solid pharmaceutical dosage forms,does not convert to other crystalline forms
"NC(=O)[C@@H]1CC[C@@H]2CN1C(=O)N2OS(=O)(=O)O [form E, avibactam sodium]",temperature above which the form dehydrates to monohydrate form A,[1],above 60 °C
same,relative humidity above which the form is particularly stable,[2]; per WO 2011/042560 A1,> 70%
same,stability during long storage and at higher temperature,[2]; per WO 2011/042560 A1,tends to lose water and to hydrolyze
